{"source": "patent US20260217699A1", "about": "“BERBERINE TAUROURSODEOXYCHOLATE COMPOSITIONS AND METHODS THEREOF” (SHENZHEN HIGHTIDE BIOPHARMACEUTICAL LTD., priority 2023, published 2026)", "format_in_all_cases": "in vivo, Sprague-Dawley rats", "key": {"[1]": {"test_system": "6-OHDA Stereotactic Injection Induced PD Rats", "experiment": "Grip strength test", "conditions": "for Peak Grip Strength: Mean ± SEM, N=10, Model 558.334 ± 10.175, p<0.001 vs Model", "source_text": "The rats were respiratory anesthetized with isoflurane; the head was fixed to ensure that there was no movement and the brain surface was adjusted to be flat; the head was shaved, and a skin incision was made along the sagittal suture to expose the fontanel point; the glass electrode was positioned to the fontanel, and the axes of the coordinate monitor were zeroed to locate the brain areas of the SN and the Str based on the coordinates, in which the SN: AP=−5.0 mm; ML=−1.9 mm; DV=−8.5 mm, and Str: AP=+0.5 mm; ML=−3.0 mm; DV=−6.0 mm. […]; slowly inserted the needle into the localized area of SN and Str, waited for 10 min, and then administered the drug of 6-OHDA at a rate of […] for 10 min, and each animal was given […] of each of SN and Str area, and then the needle was slowly withdrawn after the drug was administered for 10 min, and the PD rat model was established.\nThe animal was placed on the platform with both forelimbs on the gripping pole, followed by grabbing the animal's tail, and pulling it straight back until the pulling force exceeded their gripping force. After the animals lose their grip, the preamplifier automatically recorded the maximum value of the pulling force. After the measurement was completed, the average of the maximum pulling force of each group of animals was calculated to evaluate the rat's locomotor muscle ability. Information on the grip strength test can also be found in the literature (Jeyasingham, et al. 2001 Brain Res Bull. 55(4):541-8).\nIn this study, 16 Sprague Dawley (SD) male rats 180g-220g were used to establish a PD model by stereotactic unilateral injection of 6-OHDA in the substantia nigra (SN) and striatum (Str) brain areas after one week of acclimatization feeding and were randomly divided into 2 groups of 8 rats each. […]\nExperimental Methods: Seventy 180-220g SD male rats were selected and fed for one week for accumulation, and the PD model was established by stereotactic unilateral injection of 6-OHDA in the Substantia Nigra (SN) and Striatum (Str) regions and were randomly divided into five groups according to their body weights including Madopar group (Madopar, 50 mg/kg), BTUDC-L group (BTUDC, 100 mg/kg), BTUDC-M group (BTUDC, 500 mg/kg), and BTUDC-H group (BTUDC, 1000 mg/kg), with 10 animals in each group. […] At the end of the administration, the test articles were evaluated for tolerance in this model and in behavioral apomorphine—asymmetric rotation test, beam test, rotarod test and grip strength test, immunofluorescence staining (TH, Ibal), and cerebrospinal fluid inflammatory factor assays to evaluate the pharmacodynamic effects of the test articles. […]"}, "IL-1β": {"test_system": "IL-1β", "experiment": "Elisa test of cerebrospinal fluid, IL-1β", "conditions": "rat cerebrospinal fluid; BTUDC-H 1000 mg/kg p.o. Qd 21 days; Mean ± SEM, n=10; Model 41.509 ± 1.298; p<0.05 vs Model", "source_text": "(§1) The cerebrospinal fluid was directly extracted by inserting a needle through the foramen magnum, and the supernatant was collected after centrifugation for ELISA testing. The kit brand was Shanghai Enzyme Link. The product codes of IL-6, IL-1β, and TNF-α were m1064292, m1037361, and m1002859, respectively. Processed the sample according to the instructions of the ELISA detection kit, adjusted the blank well to zero, measured the absorbance (OD value) of each well sequentially at a wavelength of 450 nm, and calculated the sample concentration based on the standard curve and OD value. […]\n(§2) Dosing volume: 10 mL/kg • 1. […] Histochemical test: After the behavioral test, the cerebrospinal fluid from each animal (N=10) was collected, centrifuged to collect the supernatant, and stored at −80° C. for Elisa test (IL-6, IL-1β, TNF-α), then the animals in each group (N=5) were randomly selected to take the modeling side of the striatum for the detection of neurotransmitters, and the rest of them (N=5) were subjected to cardiac perfusion, which was performed by the process of perfusion, fixation, sedimentation and slicing for immunofluorescence staining and photographed, and the number or area of signals were counted by ImageJ software. • 4. […]"}, "IL-6": {"test_system": "IL-6", "experiment": "Elisa test of cerebrospinal fluid, IL-6", "conditions": "rat cerebrospinal fluid; BTUDC-H 1000 mg/kg p.o. Qd 21 days; Mean ± SEM, n=10; Model 159.058 ± 6.349; p<0.05 vs Model", "source_text": "as §1, §2"}}, "data": [{"smiles": "COc1ccc2cc3[n+](cc2c1OC)CCc1cc2c(cc1-3)OCO2.C[C@H](CCC(=O)NCCS(=O)(=O)[O-])[C@H]1CC[C@H]2[C@@H]3[C@@H](O)C[C@@H]4C[C@H](O)CC[C@]4(C)[C@H]3CC[C@]12C", "note": "[BTUDC, Berberine tauroursodeoxycholate]", "values": [{"measurement": "Grip Strength Test Peak grip strength(gf)", "setting": "[1]; 500 mg/kg QD p.o. 21 days, Model 535.521 ± 15.5632, P < 0.001 vs Model", "result": "757.479 ± 7.5044", "unit": "gf"}, {"measurement": "Peak Grip Strength", "setting": "[1]; BTUDC-H 1000 mg/kg p.o. Qd 21 days", "result": "767.101 ± 6.668"}, {"measurement": "Peak Grip Strength", "setting": "[1]; BTUDC-L 100 mg/kg p.o. Qd 21 days", "result": "711.616 ± 7.934"}, {"measurement": "Peak Grip Strength", "setting": "[1]; BTUDC-M 500 mg/kg p.o. Qd 21 days", "result": "737.000 ± 8.222"}, {"measurement": "IL-1β Conc.", "setting": "IL-1β", "result": "37.251 ± 1.005", "unit": "pg/mL"}, {"measurement": "IL-6 Conc.", "setting": "IL-6", "result": "147.095 ± 1.871", "unit": "pg/mL"}]}]}
